Results as given in patent US7122335B1, “Compounds and methods to enhance rAAV transduction” (priority 1999, dated 2006).

Tests used:
[1] = system: Hela cells; settings: previously shown; cited from earlier work
[2] = system: Hela cells; assay: Cy3-labeled rAAV binding to Hela cells at 4° C., heparin competition; assay type: cell-based, human; settings: free heparin at the time of infection
Description: FIGS. 18A–D. Cy3-labeled rAAV infection in Hela cells. Hela cells were infected with Cy3-labeled AV.GFP3ori at an MOI of 500 particles/cells for 90 minutes at 4° C. in the absence of serum. Cells were then washed and either directly fixed in 2% paraformaldehyde for 10 minutes or incubated at 37° C. for an additional 60 or 120 minutes prior to fixation. Prior to viral infections, cells were incubated for 30 minutes in 1 μM 5-chloromethylfluorescein diacetate (Cell Tracker™ Green CMFDA, Molecular Probe) to allow for visualization of cells and labeled virus in dual fluorescent channel images. Representative confocal image of cells infected for 90 minutes at 4° C. followed by a 60 and 120 minute incubation at 37° C. are shown for both Cy3 and dual Cy3/FITC channels (FIG. 18A). The nuclei in dual channel images are marked by Nu. The confocal images shown were merged from three 0.5 μm layers taken within the central region of the cell. FIG. 18B depicts non-confocal images with Nomarski and Cy3 channels for cells infected for 90 minutes at 4° C. […]
To assess endocytosis and nuclear trafficking of AAV following treatment with various agents which may modulate these processes, fluorescently labeled virus was prepared. […] Several experimental conditions evaluated crosslinking reactions with dye:rAAV particle ratios of 0.2, 1, 5, 25, 100, and 200. […]

heparin
rAAV transduction in Hela cells [1]: inhibit most of rAAV transduction
viral binding of Cy3-labeled rAAV [2]: inhibited in a dose-dependent fashion
